The values below come from PubChem BioAssay (NCI).

Structures are written as SMILES.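 1) Cells in 96-well plates. 2) Compound, 48 h, 5 concentrations. 3) Linear interpolation between surrounding doses. 4) Unreached endpoint = highest concentration. Abbreviation: GI50, concentration required for 50% inhibition of growth. TGI: concentration producing complete growth inhibition.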

Test systems include HCT-116 colon; HL-60(TB) leukemia; MALME-3M melanoma; NCI-H23 lung; SF-268 CNS; SF-539 CNS; SK-MEL-5 melanoma; SK-OV-3 ovarian; SR leukemia; TK-10 renal.
What all share (assay): NCI-60 cell line screen, 48 h

Consider `CC(=C/c1ccccc1)/C=C1/NC(=S)N(/C=C2\C(=O)Oc3ccccc3C2=O)C1=O`, for which the TGI in the experiment on HCT-116 colon, with HL-60(TB) leukemia, in the experiment on MALME-3M melanoma, with NCI-H23 lung, in the experiment on SF-268 CNS and in the experiment on SF-539 CNS was greater than 100 µM each time. Also, the TGI was greater than 86.9 µM with SK-MEL-5 melanoma, greater than 100 µM with SK-OV-3 ovarian, greater than 100 µM in the experiment on SR leukemia and greater than 100 µM in the experiment with TK-10 renal. The GI50 with MALME-3M melanoma and in the experiment on SK-OV-3 ovarian was greater than 100 µM each time.

Take `Cn1cc(C2=C(N3CCOCC3)C(=O)NC2=O)c2ccccc21`: the GI50 with HCT-116 colon was greater than 25000 nM; in the experiment with HL-60(TB) leukemia, greater than 25000 nM; in the experiment with MALME-3M melanoma it was greater than 25 µM; in the experiment on NCI-H23 lung, greater than 25 µM; with SF-268 CNS it was greater than 25 µM; with SF-539 CNS it was greater than 25000 nM. Further, the GI50 was greater than 25000 nM with SK-MEL-5 melanoma, greater than 25 µM with SK-OV-3 ovarian, greater than 25000 nM in the experiment on SR leukemia and greater than 25 µM with TK-10 renal. Also, the TGI with HCT-116 colon, with HL-60(TB) leukemia, in the experiment with MALME-3M melanoma, in the experiment with NCI-H23 lung, in the experiment on SF-268 CNS and in the experiment with SF-539 CNS was greater than 25 µM each time. In addition, the TGI in the experiment on SK-MEL-5 melanoma, with SK-OV-3 ovarian, in the experiment with SR leukemia and in the experiment on TK-10 renal was greater than 25 µM each time.

Consider `CCN(CC)c1ccc(/C=C/C=C2\NC(=O)NC2=O)cc1`, for which the GI50 was 1600 nM in the experiment with HCT-116 colon; 3060 nM in the experiment with HL-60(TB) leukemia; 28.7 µM in the experiment on MALME-3M melanoma; 11.2 µM in the experiment with NCI-H23 lung; 8.51 µM in the experiment on SF-268 CNS; 2330 nM in the experiment on SF-539 CNS. The GI50 in the experiment on SK-MEL-5 melanoma was 1170 nM; in the experiment on SK-OV-3 ovarian, 7.6 µM; with SR leukemia it was 446 nM; with TK-10 renal it was 6.54 µM. Besides, the TGI is 30.6 µM with HCT-116 colon; greater than 100 µM in the experiment with HL-60(TB) leukemia; greater than 100 µM in the experiment with MALME-3M melanoma; greater than 100 µM with NCI-H23 lung; greater than 100 µM in the experiment with SF-268 CNS; 8.6 µM with SF-539 CNS. Further, the TGI in the experiment with SK-MEL-5 melanoma is 13.7 µM; with SK-OV-3 ovarian it was greater than 100 µM; in the experiment on SR leukemia it was greater than 100 µM; in the experiment with TK-10 renal it was 64.2 µM.

Take `O=C(O)c1cc2ccccc2c2c1C(=O)c1ccccc1-2`: the TGI with HCT-116 colon, in the experiment on HL-60(TB) leukemia, in the experiment on MALME-3M melanoma, in the experiment with NCI-H23 lung, in the experiment on SF-268 CNS and in the experiment on SF-539 CNS was greater than 100 µM throughout. For the same compound, the TGI with SK-MEL-5 melanoma, in the experiment with SK-OV-3 ovarian, in the experiment with SR leukemia and in the experiment on TK-10 renal was greater than 100 µM in each case.

For the compound `Cc1cc(C(=O)c2ccccc2)c(C)c2c1[nH]c1ccc(Cl)cc12`, the GI50 in the experiment with HCT-116 colon was 43.7 nM; with HL-60(TB) leukemia it was 39.8 nM; with MALME-3M melanoma it was 0.0558 µM; in the experiment with NCI-H23 lung it was 0.101 µM; in the experiment on SF-268 CNS, 0.715 µM; in the experiment on SF-539 CNS, 41.5 nM. For the same compound, the GI50 is 68 nM with SK-MEL-5 melanoma, 0.35 µM in the experiment with SK-OV-3 ovarian, 38.3 nM with SR leukemia and 3.11 µM in the experiment with TK-10 renal. Further, the TGI in the experiment on HCT-116 colon was 4.74 µM; in the experiment on HL-60(TB) leukemia, 1.78 µM; with MALME-3M melanoma, 15.9 µM; with NCI-H23 lung it was greater than 47 µM; in the experiment on SF-268 CNS, greater than 78.3 µM; in the experiment with SF-539 CNS, 0.799 µM. For the same compound, the TGI with SK-MEL-5 melanoma was 1.19 µM; in the experiment on SK-OV-3 ovarian, greater than 50.6 µM; with SR leukemia it was greater than 63.4 µM; in the experiment with TK-10 renal, 31.3 µM.

Take `CC(=O)c1nc2ccccc2n1CC(=O)c1cccc(Cl)c1`: the GI50 in the experiment with HCT-116 colon is 401 nM; in the experiment with HL-60(TB) leukemia it was 144 nM; in the experiment on MALME-3M melanoma it was 0.517 µM; with NCI-H23 lung it was 0.522 µM; with SF-268 CNS, 1.12 µM; with SF-539 CNS it was 330 nM. In addition, the GI50 with SK-MEL-5 melanoma was 175 nM; in the experiment on SK-OV-3 ovarian it was 1.27 µM; in the experiment with SR leukemia, 121 nM; in the experiment on TK-10 renal, 3.22 µM. Moreover, the TGI was greater than 100 µM in the experiment on HCT-116 colon; 0.61 µM in the experiment with HL-60(TB) leukemia; greater than 100 µM in the experiment on MALME-3M melanoma; greater than 47.5 µM with NCI-H23 lung; greater than 71.7 µM in the experiment on SF-268 CNS; 2.25 µM with SF-539 CNS. Besides, the TGI in the experiment on SK-MEL-5 melanoma is 13.6 µM; with SK-OV-3 ovarian, greater than 100 µM; in the experiment on SR leukemia, 1.48 µM; with TK-10 renal it was 99.7 µM.

Turning to `Cc1ccc(-c2cc(O)c(-c3ccc(C)cc3C)cc2O)c(C)c1`, the GI50 in the experiment on HCT-116 colon was 1170 nM; in the experiment on HL-60(TB) leukemia, 10300 nM; with MALME-3M melanoma it was 12.9 µM; in the experiment with NCI-H23 lung, 7.43 µM; in the experiment on SF-268 CNS, 6.97 µM; in the experiment with SF-539 CNS, 10700 nM. The GI50 with SK-MEL-5 melanoma is 1110 nM; in the experiment with SK-OV-3 ovarian, 11 µM; in the experiment on SR leukemia, 3570 nM; in the experiment on TK-10 renal it was 11.7 µM. The TGI is 13.7 µM in the experiment with HCT-116 colon; greater than 100 µM in the experiment with HL-60(TB) leukemia; 28.2 µM in the experiment on MALME-3M melanoma; 26.2 µM with NCI-H23 lung; 30.6 µM in the experiment on SF-268 CNS; 23.2 µM in the experiment with SF-539 CNS. The TGI in the experiment on SK-MEL-5 melanoma is 10.2 µM; in the experiment on SK-OV-3 ovarian it was 27.3 µM; in the experiment with SR leukemia, 74.9 µM; in the experiment on TK-10 renal, 42.2 µM.

In the case of `O=C(CCc1ccc(O)cc1)N/N=C/c1cc(Br)ccc1O`, the GI50 is 4340 nM in the experiment on HCT-116 colon; 2500 nM with HL-60(TB) leukemia; 4.01 µM with MALME-3M melanoma; 7.42 µM in the experiment with NCI-H23 lung; 2.23 µM with SF-268 CNS; 4030 nM with SF-539 CNS. The GI50 is 3400 nM with SK-MEL-5 melanoma, 6.35 µM in the experiment on SK-OV-3 ovarian, 2520 nM in the experiment on SR leukemia and 7.35 µM with TK-10 renal. For the same compound, the TGI with HCT-116 colon was greater than 100 µM; in the experiment on HL-60(TB) leukemia it was 9.66 µM; with MALME-3M melanoma, 28.3 µM; with NCI-H23 lung, greater than 100 µM; in the experiment with SF-268 CNS, 24.4 µM; with SF-539 CNS, 35.4 µM. Moreover, the TGI in the experiment with SK-MEL-5 melanoma was 18.1 µM; in the experiment with SK-OV-3 ovarian, greater than 100 µM; in the experiment with SR leukemia, 9.66 µM; in the experiment on TK-10 renal it was greater than 100 µM.

For the compound `NC(=S)NN=C1CSSC1`, the GI50 was 2780 nM in the experiment on HCT-116 colon; 516 nM with HL-60(TB) leukemia; 3.67 µM with MALME-3M melanoma; 3.78 µM with NCI-H23 lung; 3.61 µM in the experiment on SF-268 CNS; 2750 nM with SF-539 CNS. Also, the GI50 was 1300 nM with SK-MEL-5 melanoma, 5.25 µM with SK-OV-3 ovarian, 2790 nM with SR leukemia and 2.73 µM with TK-10 renal. In addition, the TGI was 11.8 µM in the experiment on HCT-116 colon; 6.81 µM in the experiment on HL-60(TB) leukemia; 28.8 µM with MALME-3M melanoma; 35.5 µM with NCI-H23 lung; 13.8 µM in the experiment with SF-268 CNS; 7.38 µM with SF-539 CNS. For the same compound, the TGI was 2.76 µM with SK-MEL-5 melanoma, 25.1 µM in the experiment on SK-OV-3 ovarian, greater than 100 µM in the experiment on SR leukemia and 7.62 µM in the experiment with TK-10 renal.
